Earlier results as cited in US20160338951A1 (Gavis Pharmaceuticals, priority 2015, published 2016).

Details: olopatadine by itself, water pH about 7.0, room temperature

## CN(C)CC/C=C1/c2ccccc2COc2ccc(CC(=O)O)cc21 [olopatadine, 11-[(Z)-3(Dimethylamino)propylidene]-6-11dihydrodibenz [b,e] oxepin-2-acetic acid]
  soluble in water up to a concentration: about 0.18 w/v %
